Measurements as given in patent publication EP0303387B1, “Kynurenic acid derivatives useful in the treatment of neurodegenerative disorders” (MERCK SHARP & DOHME LTD., priority 1987, dated 1989).
Where a name gives a salt, the structure may show the parent alone. Read-outs that look alike come from different tables or passages of the source.

Legend:
[1] = molecular target: T1, NMDA receptor (Rattus norvegicus, UniProt P35439); assay: antagonism of responses to NMDA, rat cortical slice preparation; assay type: cell-based
T1 construct: from tissue; host or cells: rat cortical slice
Method: The effects of compounds of the invention on responses to the agonists NMDA, kainate and quisqualate were assessed using the rat cortical slice preparation as described by Wong et al., Proc. Natl. Acad. Sci. USA, 1986, 83, 7104. The apparent equilibrium constants (Kb) were calculated from the righthand shift in the agonist concentration-response curve.

[2] = test system: excitatory amino acid receptors; conditions: statement in words; R.H. Evans et al., Br. J. Pharmac., 1987, 91, 531; cited from earlier work
[3] = rat cortical slice, apparent equilibrium constant (Kb) calculated from righthand shift in the agonist concentration-response curve, read-out: NMDA antagonist activity at concentrations (Kb)

| SMILES | Kb [1, 3] [µM] | other results |
| --- | --- | --- |
| Cc1cc(I)c2c(O)cc(C(=O)O)nc2c1 [5-Iodo-7-methyl-4-oxo-1,4-dihydroquinoline-2-carboxylic acid] | < 100 | – |
| O=C(O)c1cc(O)c2ccc(I)cc2n1 [7-iodo-4-oxo-1,4-dihydroquinoline-2-carboxylic acid] | < 100 | – |
| O=C(O)c1cc(O)c2c(Br)cc(Br)cc2n1 [5,7-dibromo-4-oxo-1,4-dihydroquinoline-2-carboxylic acid] | < 100 | – |
| CCc1cc(Br)cc2nc(C(=O)O)cc(O)c12 [7-Bromo-5-ethyl-4-oxo-1,4-dihydroquinoline-2-carboxylic acid] | < 100 | – |
| CCc1cc(Br)c2c(O)cc(C(=O)O)nc2c1 [5-Bromo-7-ethyl-4-oxo-1,4-dihydroquinoline-2-carboxylic acid] | < 100 | – |
| O=C(O)c1cc(O)c2ccc(Cl)cc2n1 [7-chloro-4-oxo-1,4-dihydroquinoline-2-carboxylic acid] | < 100 | – |
| Cc1cc(Br)cc2nc(C(=O)O)cc(O)c12 [7-Bromo-5-methyl-4-oxo-1,4-dihydroquinoline-2-carboxylic acid] | < 100 | – |
| O=C(O)c1cc(O)c2c(Cl)cccc2n1 [5-chloro-4-oxo-1,4-dihydroquinoline-2-carboxylic acid] | < 100 | – |
| O=C(O)c1cc(O)c2ccc(F)cc2n1 [7-fluoro-4-oxo-1,4-dihydroquinoline-2-carboxylic acid] | < 100 | – |
| Cc1cc(C)c2c(O)cc(C(=O)O)nc2c1 [5,7-Dimethyl-4-oxo-1,4-dihydroquinoline-2-carboxylic acid] | < 100 | – |
| Cc1cc(I)cc2nc(C(=O)O)cc(O)c12 [7-Iodo-5-methyl-4-oxo-1,4-dihydroquinoline-2-carboxylic acid] | < 100 | – |
| Cc1cccc2nc(C(=O)O)cc(O)c12 [5-methyl-4-oxo-1,4-dihydroquinoline-2-carboxylic acid] | < 100 | – |
| Cc1ccc2c(O)cc(C(=O)O)nc2c1 [7-methyl-4-oxo-1,4-dihydroquinoline-2-carboxylic acid] | < 100 | – |
| O=C(O)c1cc(=O)c2ccccc2[nH]1 [Kynurenic acid, 4-oxo-1,4-dihydroquinoline-2-carboxylic acid] | – | antagonist of excitatory amino acid receptors [2]: weak and non-selective antagonist |
| O=C(O)c1cc(O)c2c(I)cccc2n1 [5-Iodo-4-oxo-1,4-dihydroquinoline-2-carboxylic acid] | < 100 | – |
| O=C(O)c1cc(O)c2ccc(Br)cc2n1 [7-bromo-4-oxo-1,4-dihydroquinoline-2-carboxylic acid] | – | Kb [1]: < 100 µM |
| CCc1cccc2nc(C(=O)O)cc(O)c12 [5-Ethyl-4-oxo-1,4-dihydroquinoline-2-carboxylic acid] | < 100 | – |

The next lines start with results.

| Kb [1, 3] [µM] | SMILES | other results |
| --- | --- | --- |
| < 100 | O=C(O)c1cc(=O)c2c(C(F)(F)F)cccc2[nH]1 [5-Trifluoromethyl-4-oxo-1,4-dihydroquinoline-2-carboxylic acid] | – |
| < 100 | O=C(O)c1cc(=O)c2cc(F)ccc2[nH]1 [6-fluoro-4-oxo-1,4-dihydroquinoline-2-carboxylic acid] | – |
| < 100 | O=C(O)c1cc(=O)c2ccc([N+](=O)[O-])cc2[nH]1 [7-nitro-4-oxo-1,4-dihydroquinoline-2-carboxylic acid] | – |
| < 100 | CCc1cc(Cl)c2c(O)cc(C(=O)O)nc2c1 [5-Chloro-7-ethyl-4-oxo-1,4-dihydroquinoline-2-carboxylic acid] | – |
| < 100 | O=C(O)c1cc(=O)c2c(Br)cccc2[nH]1 [5-bromo-4-oxo-1,4-dihydroquinoline-2-carboxylic acid] | – |
| < 100 | O=C(O)c1cc(O)c2c(Cl)cc(Cl)cc2n1 [5,7-dichloro-4-oxo-1,4-dihydroquinoline-2-carboxylic acid] | – |
| < 100 | O=C(O)c1cc(O)c2c(Cl)cc(I)cc2n1 [5-Chloro-7-iodo-4-oxo-1,4-dihydroquinoline-2-carboxylic acid] | – |
| < 100 | O=C(NOCc1ccccc1)c1cc(=O)c2c(Cl)cc(Cl)cc2[nH]1 [5,7-Dichloro-4-oxo-1,4-dihydroquinoline-2-(O-benzyl)hydroxamic acid] | – |
| < 100 | CCc1cc(Cl)cc2nc(C(=O)O)cc(O)c12 [7-Chloro-5-ethyl-4-oxo-1,4-dihydroquinoline-2-carboxylic acid] | – |
| < 100 | O=C(NO)c1cc(=O)c2c(Cl)cc(Cl)cc2[nH]1 [5,7-Dichloro-4-oxo-1,4-dihydroquinoline-2-hydroxamic acid potassium salt.] | – |
| < 100 | O=C(O)c1cc(O)c2c(I)cc(Cl)cc2n1 [7-Chloro-5-iodo-4-oxo-1,4-dihydroquinoline-2-carboxylic acid] | – |
| < 100 | Cc1cc(Br)c2c(O)cc(C(=O)O)nc2c1 [5-Bromo-7-methyl-4-oxo-1,4-dihydroquinoline-2-carboxylic acid] | – |
| < 100 | O=C(O)c1cc(=O)c2c(F)cccc2[nH]1 [5-Fluoro-4-oxo-1,4-dihydroquinoline-2-carboxylic acid] | – |
